Molecules are shown by their SMILES.

The text below walks through data of patent US9040528B2, “Chemical compounds 542” (AstraZeneca AB, priority 2008, dated 2015).

The first experiment deals with Escherichia coli DNA gyrase A/B tetramer (Escherichia coli (strain K12), UniProt P0AES4+P0AES6). The experiment is described as follows: DNA gyrase supercoiling activity fluorescence polarisation assay. Type of experiment: biochemical.
Conditions: not given
The method, boiled down:
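Supercoiling reactions quenched with 40 nM 5′-BODIPY-FL triplex-forming oligonucleotide probe in pH 3.5 NaCl/sodium acetate buffer; after 60 min, fluorescence anisotropy read (ex 485/em 535 nm). IC50 by nonlinear regression, normalised to 0.8% DMSO (100% activity) and 5 μM ciprofloxacin (0% activity).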
As usually defined, the IC50 is the concentration needed to halve the response being measured. For `C[C@@H]1CN2c3c(cc4c(C(N)=O)noc4c3F)CC3(C(=O)NC(=O)NC3=O)[C@H]2[C@H](C)O1` (relative stereo) [Example 142, (2R,4S,4aS)-rel-11-fluoro-2,4-dimethyl-2′,4′,6′-trioxo-2,2′,3′,4,4a,4′,6,6′-octahydro-^1H,1′H-spiro[isoxazolo[4,5-g][1,4]oxazino[4,3-a]quinoline-5,5′-pyrimidine]-8-carboxamide], the half-inhibitory concentration (IC50) came to 300 nM.

Staying with this experiment, now noted: 5 nM enzyme, relaxed plasmid, 0.3 mM ATP, ambient temperature; read-out: E. coli DNA gyrase supercoiling IC50.
Turning to `C[C@@H]1CN2c3c(cc4c(C(=O)N(C)C)noc4c3F)CC3(C(=O)NC(=O)NC3=O)[C@H]2[C@H](C)O1` (relative stereo) [Example 136, (2R,4S,4aS)-rel-11-fluoro-N,N,2,4-tetramethyl-2′,4′,6′-trioxo-2,2′,3′,4,4a,4′,6,6′-octahydro-1H,1′H-spiro[isoxazolo[4,5-g][1,4]oxazino[4,3-a]quinoline-5,5′-pyrimidine]-8-carboxamide], the half-maximal inhibitory concentration (IC50) stood at 2800 nM. Consider `CON(C)C(=O)c1noc2c(F)c3c(cc12)CC1(C(=O)NC(=O)NC1=O)[C@H]1[C@H](C)O[C@H](C)CN31` (relative stereo) [Example 137, (2R,4S,4aS)-rel-11-fluoro-N-methoxy-N,2,4-trimethyl-2′,4′,6′-trioxo-2,2′,3′,4,4a,4′,6,6′-octahydro-1H,1′H-spiro[isoxazolo[4,5-g][1,4]oxazino[4,3-a]quinoline-5,5′-pyrimidine]-8-carboxamide], for which the IC50 was 2300 nM.

Turning to `CCN(C)C(=O)c1noc2c(F)c3c(cc12)CC1(C(=O)NC(=O)NC1=O)[C@H]1[C@H](C)O[C@H](C)CN31` (relative stereo) [Example 139, (2R,4S,4aS)-rel-N-ethyl-11-fluoro-N,2,4-trimethyl-2′,4′,6′-trioxo-2,2′,3′,4,4a,4′,6,6′-octahydro-1H,1′H-spiro[isoxazolo[4,5-g][1,4]oxazino[4,3-a]quinoline-5,5′-pyrimidine]-8-carboxamide], the IC50 was determined as 7600 nM. Still for that read-out and setting: the value for `CNC(=O)c1noc2c(F)c3c(cc12)CC1(C(=O)NC(=O)NC1=O)[C@H]1[C@H](C)O[C@H](C)CN31` (relative stereo) [Example 140, (2R,4S,4aS)-rel-11-fluoro-N,2,4-trimethyl-2′,4′,6′-trioxo-2,2′,3′,4,4a,4′,6,6′-octahydro-1H,1′H-spiro[isoxazolo[4,5-g][1,4]oxazino[4,3-a]quinoline-5,5′-pyrimidine]-8-carboxamide] was 1100 nM.

`C[C@@H]1CN2c3c(cc4c(C(=O)N5CCN(C)C(=O)C5)noc4c3F)CC3(C(=O)NC(=O)NC3=O)[C@H]2[C@H](C)O1` (relative stereo) [Example 141, (2R,4S,4aS)-rel-11-fluoro-2,4-dimethyl-8-(4-methyl-3-oxopiperazine-1-carbonyl)-2,4,4a,6-tetrahydro-1H,1′H-spiro[isoxazolo[4,5-g][1,4]oxazino[4,3-a]quinoline-5,5′-pyrimidine]-2′,4′,6′(3′H)-trione]: the IC50 turned out to be 4900 nM. For `COCCNC(=O)c1noc2c(F)c3c(cc12)CC1(C(=O)NC(=O)NC1=O)[C@H]1[C@H](C)O[C@H](C)CN31` (relative stereo) [Example 143, (2R,4S,4aS)-rel-11-fluoro-N-(2-methoxyethyl)-2,4-dimethyl-2′,4′,6′-trioxo-2,2′,3′,4,4a,4′,6,6′-octahydro-1H,1′H-spiro[isoxazolo[4,5-g][1,4]oxazino[4,3-a]quinoline-5,5′-pyrimidine]-8-carboxamide], the IC50 was 1000 nM. For the molecule `C[C@@H]1CN2c3c(cc4c(C(=O)NC(C)(C)C)noc4c3F)CC3(C(=O)NC(=O)NC3=O)[C@H]2[C@H](C)O1` (relative stereo) [Example 144, (2R,4S,4aS)-rel-N-tert-butyl-11-fluoro-2,4-dimethyl-2′,4′,6′-trioxo-2,2′,3′,4,4a,4′,6,6′-octahydro-1H,1′H-spiro[isoxazolo[4,5-g][1,4]oxazino[4,3-a]quinoline-5,5′-pyrimidine]-8-carboxamide], the half-inhibitory concentration (IC50) came out at 2900 nM.

With `C[C@@H]1CN2c3c(cc4c(C(=O)N5CCS(=O)(=O)CC5)noc4c3F)CC3(C(=O)NC(=O)NC3=O)[C@H]2[C@H](C)O1` (relative stereo) [Example 145, (2R,4S,4aS)-rel-8-[(1,1-dioxidothiomorpholin-4-yl)carbonyl]-11-fluoro-2,4-dimethyl-1,2,4,4a-tetrahydro-2′H,6H-spiro[isoxazolo[4,5-g][1,4]oxazino[4,3-a]quinoline-5,5′-pyrimidine]-2′,4′,6′(1′H,3′H)-trione], the IC50 came out at 5200 nM. For the molecule `C[C@@H]1CN2c3c(cc4c(C(=O)NC5CCOCC5)noc4c3F)CC3(C(=O)NC(=O)NC3=O)[C@H]2[C@H](C)O1` (relative stereo) [Example 146, (2R,4S,4aS)-rel-11-fluoro-2,4-dimethyl-2′,4′,6′-trioxo-N-(tetrahydro-2H-pyran-4-yl)-2,2′,3′,4,4a,4′,6,6′-octahydro-1H,1′H-spiro[isoxazolo[4,5-g][1,4]oxazino[4,3-a]quinoline-5,5′-pyrimidine]-8-carboxamide], the IC50 was 4900 nM. Take `CC(C)NC(=O)c1noc2c(F)c3c(cc12)CC1(C(=O)NC(=O)NC1=O)[C@H]1[C@H](C)O[C@H](C)CN31` (relative stereo) [Example 147, (2R,4S,4aS)-rel-11-fluoro-N-isopropyl-2,4-dimethyl-2′,4′,6′-trioxo-2,2′,3′,4,4a,4′,6,6′-octahydro-1H,1′H-spiro[isoxazolo[4,5-g][1,4]oxazino[4,3-a]quinoline-5,5′-pyrimidine]-8-carboxamide]: the IC50 amounted to 3900 nM.

Take `C[C@@H]1CN2c3c(cc4c(-c5ncccn5)noc4c3F)CC3(C(=O)NC(=O)NC3=O)[C@H]2[C@H](C)O1` (relative stereo) [Example 148, (2R,4S,4aS)-rel-11-fluoro-2,4-dimethyl-8-(pyrimidin-2-yl)-1,2,4,4a-tetrahydro-2′H,6H-spiro[1,4-oxazino[4,3-a][1,2]oxazolo[4,5-g]quinoline-5,5′-pyrimidine]-2′,4′,6′(1′H,3′H)-trione]: the IC50 came out at 900 nM. On the same count and under the same terms, the value for `Cc1noc2c(F)c3c(cc12)CC1(C(=O)NC(=O)NC1=O)[C@H]1[C@H](C)O[C@H](C(F)(F)F)CN31` (relative stereo) [Example 149, (2S,4S,4aS)-rel-11-fluoro-4,8-dimethyl-2-(trifluoromethyl)-1,2,4,4a-tetrahydro-2′H,6H-spiro[isoxazolo[4,5-g][1,4]oxazino[4,3-a]quinoline-5,5′-pyrimidine]-2′,4′,6′(1′H,3′H)-trione] was 4400 nM; that for `C[C@@H]1CN2c3c(cc4c(C(=O)NC5CC5)noc4c3F)CC3(C(=O)NC(=O)NC3=O)[C@H]2[C@H](C)O1` (relative stereo) [Example 150, (2R,4S,4aS)-rel-N-cyclopropyl-11-fluoro-2,4-dimethyl-2′,4′,6′-trioxo-2,2′,3′,4,4a,4′,6,6′-octahydro-1H,1′H-spiro[isoxazolo[4,5-g][1,4]oxazino[4,3-a]quinoline-5,5′-pyrimidine]-8-carboxamide] was 1300 nM. On the same count and under the same terms, the value for `COC1CCN(C(=O)c2noc3c(F)c4c(cc23)CC2(C(=O)NC(=O)NC2=O)[C@H]2[C@H](C)O[C@H](C)CN42)CC1` (relative stereo) [Example 151, (2R,4S,4aS)-rel-11-fluoro-8-(4-methoxypiperidine-1-carbonyl)-2,4-dimethyl-2,4,4a,6-tetrahydro-1H,1′H-spiro[isoxazolo[4,5-g][1,4]oxazino[4,3-a]quinoline-5,5′-pyrimidine]-2′,4′,6′(3′H)-trione] was 5500 nM.
